Values of other authors in patent publication US7282225B1, “Composition and methods for improving retinal health” (Occular Technologies, Inc., priority 2006, dated 2007).
Where two headings read alike, the source gives them in different places. Blank lines part the entries; values can stand above or below the compound they belong to.

What was measured:
animals [1] = settings: animal study, alpha-lipoic acid supplements
animals [2] = test system: animals
macular degeneration = settings: dietary or supplement intake, case-control study
AMD [3] = settings: diet of 6 mg per day
[4] = test system: patients with atherosclerosis; settings: 2 g/day
bladder cancer = settings: 500 mg daily for 10 years or more
[5] = healthy, young men
colon cancer [6] = settings: intake of more than 157 mg/day
people = settings: more than 750 mg/day
[7] = test system: restenosis after angioplasty; settings: 500 mg/day
monocytes = settings: 2 g/day
colon cancer [8] = settings: 3 g/day
asthma = settings: 1-2 g/day
heart disease = settings: more than 700 mg/day versus 60 mg/day or less
[9] = test system: age-related macular degeneration (AMD); settings: participants at high risk (intermediate AMD, or advanced AMD in one eye only), daily oral tablets
AMD [10] = test system: AMD

SMILES: O=C(O)CCCCC1CCSS1 (stereo not drawn) [alpha-lipoic acid, Alpha-Lipoic Acid]
side effects associated with amikacin and gentamicin (animals [1]): reduced side effects, particularly toxicity to the ear
toxic side effects associated with cisplatin and cyclophosphamide (animals [2]): protected against toxic side effects
cholesterol levels (rats): improved cholesterol levels
thyroid hormone function (rats): altered thyroid hormone function

SMILES: CC1=C[C@H](O)CC(C)(C)[C@H]1/C=C/C(C)=C/C=C/C(C)=C/C=C/C=C(C)/C=C/C=C(C)/C=C/C1=C(C)C[C@@H](O)CC1(C)C [lutein, Lutein]
association of intake with risk of macular degeneration (macular degeneration): most strongly associated with a reduced risk
lower prevalence of AMD (AMD [3]): 43%

SMILES: CC1=C(/C=C/C(C)=C/C=C/C(C)=C/CO)C(C)(C)CCC1 [retinol, Retinol]
association of intake with risk of macular degeneration (macular degeneration): no effect

minimum intake required to completely saturate the blood plasma with vitamin C [5]: ≥ 1000 mg/day
SMILES: O=C1O[C@H]([C@@H](O)CO)C(O)=C1O [vitamin C, ascorbic acid]
vasomotor dysfunction [4]: effectively reverses
reduction of risk of developing bladder cancer (bladder cancer): 60%
open angle glaucoma (cataracts and glaucoma; large doses): can be reversed
risk of cataracts and glaucoma (cataracts and glaucoma; supplementation): significantly lower
association of intake with risk of macular degeneration (macular degeneration): little effect
reduction of risk of developing colon cancer (colon cancer [6]): 50%
reduction of risk of dying prematurely (people): 60%
restenosis (reclosing of opened arteries) after angioplasty [7]: significantly reduced
adhesion of monocytes to the lining of blood vessels (monocytes): reduce adhesion of monocytes
polyp growth in colon cancer (colon cancer [8]): effectively prevent further polyp growth
asthma symptoms (asthma): reduce asthma symptoms significantly
lower risk of dying from heart disease (heart disease): 62%

SMILES: Cc1c(C)c2c(c(C)c1O)CC[C@@](C)(CCC[C@H](C)CCC[C@H](C)CCCC(C)C)O2 [vitamin E, alpha-tocopherol]
association of intake with risk of macular degeneration (macular degeneration): negative effects

SMILES: CC1=C(/C=C/C(C)=C/C=C/C(C)=C/C=C/C=C(C)/C=C/C=C(C)/C=C/C2=C(C)C[C@@H](O)CC2(C)C)C(C)(C)C[C@H](O)C1 [zeaxanthin, Zeaxanthin]
association of intake with risk of macular degeneration (macular degeneration): most strongly associated with a reduced risk

SMILES: [O-2].[Zn+2] [zinc alone]
Reduced risk of developing advanced AMD [9]: about 21%
Reduced risk of vision loss [9]: about 11%
Reduced risk of developing advanced AMD ([9]; listed as Zinc Alone): AMD by about 21%.
Reduced risk of vision loss ([9]; listed as Zinc Alone): loss by about 11%.

SMILES: [Zn] [zinc]
accumulation of drusen (AMD [10]; zinc group): less accumulation of drusen
treatment of AMD (AMD [10]; zinc supplements): effective
